Data reported in US11739098B2 (BRISTOL-MYERS SQUIBB COMPANY, priority 2017, dated 2023).

Key:
Type in all cases: cell-based
human TLR8 = molecular target: T1, human TLR8 (Homo sapiens, UniProt Q9NR97); experiment: TLR8 inhibition reporter assay (HEK-Blue cells, SEAP reporter, R848 stimulation); details: HEK-Blue cells overexpressing human TLR8, SEAP reporter, R848 15.9 μM
T1 construct: host or cells: HEK-Blue cells (HEK293-derived reporter line)
T1 sequence (Q9NR97 27-1041): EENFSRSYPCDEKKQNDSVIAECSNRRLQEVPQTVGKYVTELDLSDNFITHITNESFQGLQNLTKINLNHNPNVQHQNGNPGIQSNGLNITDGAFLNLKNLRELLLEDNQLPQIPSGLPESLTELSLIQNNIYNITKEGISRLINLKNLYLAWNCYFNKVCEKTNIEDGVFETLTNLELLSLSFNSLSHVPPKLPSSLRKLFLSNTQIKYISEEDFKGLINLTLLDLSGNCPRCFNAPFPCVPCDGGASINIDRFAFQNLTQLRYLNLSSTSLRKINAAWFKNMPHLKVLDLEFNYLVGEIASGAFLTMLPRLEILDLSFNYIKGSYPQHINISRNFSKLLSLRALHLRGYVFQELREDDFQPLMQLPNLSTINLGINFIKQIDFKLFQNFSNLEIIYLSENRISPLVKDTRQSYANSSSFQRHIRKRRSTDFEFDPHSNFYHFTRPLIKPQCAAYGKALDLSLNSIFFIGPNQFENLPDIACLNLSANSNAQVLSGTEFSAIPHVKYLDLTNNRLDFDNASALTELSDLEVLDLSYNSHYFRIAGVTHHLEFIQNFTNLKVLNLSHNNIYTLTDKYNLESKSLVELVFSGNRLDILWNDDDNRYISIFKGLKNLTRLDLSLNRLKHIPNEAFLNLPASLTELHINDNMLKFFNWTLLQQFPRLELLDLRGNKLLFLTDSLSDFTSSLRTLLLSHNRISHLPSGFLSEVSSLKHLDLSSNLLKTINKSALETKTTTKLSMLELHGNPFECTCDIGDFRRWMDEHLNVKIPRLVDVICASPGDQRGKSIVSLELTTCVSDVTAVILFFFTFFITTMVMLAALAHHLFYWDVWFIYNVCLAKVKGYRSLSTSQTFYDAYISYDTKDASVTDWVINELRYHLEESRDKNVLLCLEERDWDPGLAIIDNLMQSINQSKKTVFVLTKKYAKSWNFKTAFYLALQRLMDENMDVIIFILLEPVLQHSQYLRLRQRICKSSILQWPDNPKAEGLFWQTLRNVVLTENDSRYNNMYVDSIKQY
Procedure, shortened: (§1)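 After 22 h at 37 °C, SEAP secretion was measured from human TLR7-, TLR8- or TLR9-expressing HEK-Blue reporter cells given compound (0.05 nM–50 μM) 30 min before agonist: 7.5 μM gardiquimod, 15.9 μM R848 or 5 nM ODN2006 respectively. Percent inhibition referenced to agonist-plus-DMSO and known-inhibitor wells.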

human TLR9 = molecular target: T2, human TLR9 (Homo sapiens, UniProt Q9NR96); experiment: TLR9 inhibition reporter assay (HEK-Blue cells, SEAP reporter, ODN2006 stimulation); details: HEK-Blue cells overexpressing human TLR9, SEAP reporter, ODN2006 5 nM
T2 construct: host or cells: HEK-Blue cells (HEK293-derived reporter line)
T2 sequence (Q9NR96 26-1032): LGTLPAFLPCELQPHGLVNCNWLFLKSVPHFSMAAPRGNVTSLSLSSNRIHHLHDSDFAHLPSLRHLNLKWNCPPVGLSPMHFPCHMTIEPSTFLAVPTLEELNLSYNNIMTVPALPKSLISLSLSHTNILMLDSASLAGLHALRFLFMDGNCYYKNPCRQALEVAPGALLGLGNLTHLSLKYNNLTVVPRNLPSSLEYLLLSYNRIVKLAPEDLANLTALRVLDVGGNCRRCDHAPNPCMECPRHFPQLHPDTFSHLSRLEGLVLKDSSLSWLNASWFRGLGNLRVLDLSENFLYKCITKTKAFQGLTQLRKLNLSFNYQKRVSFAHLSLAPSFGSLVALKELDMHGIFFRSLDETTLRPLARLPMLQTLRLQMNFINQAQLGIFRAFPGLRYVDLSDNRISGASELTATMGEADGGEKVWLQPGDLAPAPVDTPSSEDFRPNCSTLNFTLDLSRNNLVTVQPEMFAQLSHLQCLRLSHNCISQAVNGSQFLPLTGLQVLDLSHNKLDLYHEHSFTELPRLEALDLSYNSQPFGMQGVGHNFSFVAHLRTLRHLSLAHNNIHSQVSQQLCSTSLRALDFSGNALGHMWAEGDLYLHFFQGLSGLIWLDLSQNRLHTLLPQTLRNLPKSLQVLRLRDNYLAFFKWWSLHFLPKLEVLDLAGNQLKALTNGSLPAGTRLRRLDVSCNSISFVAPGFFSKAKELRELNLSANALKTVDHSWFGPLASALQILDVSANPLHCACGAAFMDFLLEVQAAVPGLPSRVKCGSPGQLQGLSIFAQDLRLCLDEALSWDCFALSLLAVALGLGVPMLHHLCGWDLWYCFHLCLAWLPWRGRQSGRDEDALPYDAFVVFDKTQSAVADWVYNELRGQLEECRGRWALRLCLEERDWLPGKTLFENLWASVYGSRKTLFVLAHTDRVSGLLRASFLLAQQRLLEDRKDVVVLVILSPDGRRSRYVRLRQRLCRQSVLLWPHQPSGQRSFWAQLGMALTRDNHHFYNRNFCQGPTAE
Procedure, shortened: as §1

human TLR7 = molecular target: T3, human TLR7 (Homo sapiens, UniProt Q9NYK1); experiment: TLR7 inhibition reporter assay (HEK-Blue cells, SEAP reporter, gardiquimod stimulation); details: HEK-Blue cells overexpressing human TLR7, SEAP reporter, gardiquimod 7.5 μM
T3 construct: host or cells: HEK-Blue cells (HEK293-derived reporter line)
T3 sequence (Q9NYK1 27-1049): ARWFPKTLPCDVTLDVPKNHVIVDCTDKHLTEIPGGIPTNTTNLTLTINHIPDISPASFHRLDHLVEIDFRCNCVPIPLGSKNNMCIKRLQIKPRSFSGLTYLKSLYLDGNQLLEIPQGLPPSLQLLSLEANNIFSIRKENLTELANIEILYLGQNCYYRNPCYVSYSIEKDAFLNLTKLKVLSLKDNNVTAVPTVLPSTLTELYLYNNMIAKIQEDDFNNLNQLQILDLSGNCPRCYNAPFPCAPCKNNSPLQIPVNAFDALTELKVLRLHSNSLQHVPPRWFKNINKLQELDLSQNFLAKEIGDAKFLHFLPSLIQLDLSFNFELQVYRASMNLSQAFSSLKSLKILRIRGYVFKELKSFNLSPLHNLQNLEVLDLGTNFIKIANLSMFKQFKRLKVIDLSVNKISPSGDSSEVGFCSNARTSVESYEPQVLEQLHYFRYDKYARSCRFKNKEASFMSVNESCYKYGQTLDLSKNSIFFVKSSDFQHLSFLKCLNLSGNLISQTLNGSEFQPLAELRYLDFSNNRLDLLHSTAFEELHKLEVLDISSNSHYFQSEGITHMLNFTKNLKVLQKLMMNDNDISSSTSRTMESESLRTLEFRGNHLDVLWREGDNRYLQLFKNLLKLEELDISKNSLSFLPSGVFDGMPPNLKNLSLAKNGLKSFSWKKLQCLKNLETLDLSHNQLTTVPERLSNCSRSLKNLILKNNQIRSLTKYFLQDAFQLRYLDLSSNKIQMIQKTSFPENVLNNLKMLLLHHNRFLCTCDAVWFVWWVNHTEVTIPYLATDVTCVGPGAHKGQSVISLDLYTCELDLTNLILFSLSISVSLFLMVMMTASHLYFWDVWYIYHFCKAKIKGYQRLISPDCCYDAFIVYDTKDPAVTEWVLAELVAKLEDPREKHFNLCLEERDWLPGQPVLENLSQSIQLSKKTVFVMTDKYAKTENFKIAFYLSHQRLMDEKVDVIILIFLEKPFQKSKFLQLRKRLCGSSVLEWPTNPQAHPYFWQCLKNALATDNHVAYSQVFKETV
Procedure, shortened: as §1

SMILES | IC50 (human TLR8) [µM] | IC50 (human TLR9) [µM] | IC50 (human TLR7) [µM]
Cc1nc(CN2CCC(c3ccc4[nH]c(-c5ccc6nccn6c5)c(C(C)C)c4c3)CC2)c[nH]1 [Example 938, 6-(3-isopropyl-5-(1-((2-methyl-1H-imidazol-4-yl)methyl)piperidin-4-yl)-1H-indol-2-yl)imidazo[1,2-a]pyridine] | < 0.1 | 0.1 to 1 | < 0.1
CCc1c(-c2cnc3cccnn23)[nH]c2ccc(C3CCNCC3)cc12 [Example 187, 3-(3-ethyl-5-(piperidin-4-yl)-1H-indol-2-yl)imidazo[1,2-b]pyridazine] | 1 to 50 | 1 to 50 | 1 to 50
CNC(=O)CN1CCC(c2ccc3[nH]c(-c4cc(C)n5nncc5c4)c(C(C)C)c3c2)CC1 [Example 320, 2-(4-(3-isopropyl-2-(7-methyl-[1,2,3]triazolo[1,5-a]pyridin-5-yl)-1H-indol-5-yl)piperidin-1-yl)-N-methylacetamide] | < 0.1 | 1 to 50 | < 0.1
CC(C)c1c(-c2ccn3cnnc3c2)[nH]c2ccc(C3CCN(CC(=O)N(C)C)CC3)cc12 [Example 305, 2-(4-(2-([1,2,4]triazolo[4,3-a]pyridin-7-yl)-3-isopropyl-1H-indol-5-yl)piperidin-1-yl)-N,N-dimethylacetamide] | 0.1 to 1 | 1 to 50 | 0.1 to 1
Cc1cc(-c2[nH]c3ccc(C4CCN(CC(=O)N(C)C)CC4)cc3c2C(C)C)cn2ccnc12 [Example 398, 2-(4-(3-isopropyl-2-(8-methylimidazo[1,2-a]pyridin-6-yl)-1H-indol-5-yl)piperidin-1-yl)-N,N-dimethylacetamide] | < 0.1 | 0.1 to 1 | < 0.1
CC(C)c1c(-c2ccnc3[nH]ncc23)[nH]c2cc(Cl)c(C3CCNCC3)cc12 [Example 252, 4-(6-chloro-3-isopropyl-5-(piperidin-4-yl)-1H-indol-2-yl)-1H-pyrazolo[3,4-b]pyridine] | < 0.1 | 0.1 to 1 | < 0.1
CCc1c(-c2ccnc3[nH]nc(C)c23)[nH]c2ccc(C3CCNCC3)cc12 [Example 226, 4-(3-ethyl-5-(piperidin-4-yl)-1H-indol-2-yl)-3-methyl-1H-pyrazolo[3,4-b]pyridine] | < 0.1 | 0.1 to 1 | < 0.1
COc1cc(-c2[nH]c3ccc(C4CCN(CC(N)=O)CC4)cc3c2C(C)C)nn2ncnc12 [Example 284, 2-(4-(3-isopropyl-2-(8-methoxy-[1,2,4]triazolo[1,5-b]pyridazin-6-yl)-1H-indol-5-yl)piperidin-1-yl)acetamide] | < 0.1 | 1 to 50 | < 0.1

The remaining lines, values ahead:

IC50 (human TLR8) [µM] | IC50 (human TLR9) [µM] | IC50 (human TLR7) [µM] | SMILES
< 0.1 | 1 to 50 | < 0.1 | CC(C)c1c(-c2ccnc3[nH]ncc23)[nH]c2ccc(C3CCN(C(=O)Cn4ccnc4)CC3)cc12 [Example 565, 2-(1H-imidazol-1-yl)-1-(4-(3-isopropyl-2-(1H-pyrazolo[3,4-b]pyridin-4-yl)-1H-indol-5-yl)piperidin-1-yl)ethan-1-one]
< 0.1 | 0.1 to 1 | < 0.1 | CC(C)c1c(-c2ccnc3[nH]ncc23)[nH]c2ccc(C3CCNCC3)c(F)c12 [Example 259, 4-(4-fluoro-3-isopropyl-5-(piperidin-4-yl)-1H-indol-2-yl)-1H-pyrazolo[3,4-b]pyridine]
< 0.1 | 1 to 50 | < 0.1 | CC(C)c1c(-c2cc3cn[nH]c3cn2)[nH]c2ccc(C3CCNCC3)cc12 [Example 179, 5-(3-isopropyl-5-(piperidin-4-yl)-1H-indol-2-yl)-1H-pyrazolo[3,4-c]pyridine]
1 to 50 | 1 to 50 | 0.1 to 1 | CNC(=O)CN1CCC(c2ccc3[nH]c(-c4ccn5nc(C)cc5c4)c(C(C)C)c3c2)CC1 [Example 322, 2-(4-(3-isopropyl-2-(2-methylpyrazolo[1,5-a]pyridin-5-yl)-1H-indol-5-yl)piperidin-1-yl)-N-methylacetamide]
0.1 to 1 | 1 to 50 | < 0.1 | Cc1cc(-c2[nH]c3ccc(C4CCNCC4)cc3c2C(C)C)cc2nccnc12 [Example 88, 7-(3-isopropyl-5-(piperidin-4-yl)-1H-indol-2-yl)-5-methylquinoxaline]
0.1 to 1 | 1 to 50 | 1 to 50 | CCc1c(-c2cc3cnn(C)c3cn2)[nH]c2ccc(C3CCNCC3)cc12 [Example 97, 5-(3-ethyl-5-(piperidin-4-yl)-1H-indol-2-yl)-1-methyl-1H-pyrazolo[3,4-c]pyridine]
> 3.13 | 1 to 50 | 1 to 50 | CNC(=O)CN1CCC(c2ccc3[nH]c(-c4cnc5nn(C)cc5c4)c(C(C)C)c3c2)CC1 [Example 368, 2-(4-(3-isopropyl-2-(2-methyl-2H-pyrazolo[3,4-b]pyridin-5-yl)-1H-indol-5-yl)piperidin-1-yl)-N-methylacetamide]
